Results from patent US8202879B2, “Quinazoline derivatives having tyrosine kinase inhibitory activity” (Shionogi & Co., Ltd., priority 2005, dated 2012).
Counter-ions that a name gives are not always drawn. Like-named read-outs stand apart in the source and are kept apart here.

Assays:
HER2 = molecular target: T1, HER2 (Homo sapiens, UniProt P04626); experiment: Enzyme inhibitory activity on HER2 (time resolution fluorescence, biotinylated poly-Glu-Tyr substrate); assay type: biochemical
T1 construct: purchased Carna Biosciences, Inc; host or cells: insect cell expression system
Procedure: (§1) Enzyme Inhibitory Activity of Test Compound on EGFR and HER2
(§2) EGFR and HER2 purified from an insect cell expression system, and a biotinylated substrate (synthetic peptide of glutamic acid:tyrosine=4:1) were added to a 384-well plate with ATP added thereto, and an enzyme reaction was performed at room temperature. After completion of the enzyme reaction, an anti-phosphorylated tyrosine antibody labeled with europium and streptavidin labeled with alphycocyanine were added, and a phosphorylated tyrosine residue was quantified by a time resolution fluorescence method.
(§3) A test compound was adjusted to 10 mM using DMSO.
(§4) Further, using 10% DMSO solution, a 1 mM solution was prepared, and this was regarded as a maximum concentration point.
(§5) As a dilution series, a 4-fold dilution series was prepared to a 10 stage.
(§6) As a buffer, TBS containing 10 mM MgCl2, 5 mM MnCl2, 0.2 mM Na3VO4, and 0.1% BSA was used.
(§7) As EGFR and HER2 enzymes, those purified from an insect cell expression system were purchased from Carna Biosciences, Inc.
HER2 kinase was adjusted to 1000 ng/ml using a buffer.
(§8) As a substrate, biotinylated poly-Glu-Tyr (4:1, manufactured by CISbio) was used. A concentration was adjusted to 3.125 μg/ml using the above buffer.
An ATP concentration on study of the HER2 enzyme was adjusted to 290 μM.
(§9) For preparing a detection reagent, TBS containing 30 mM EDTA, 0.8M KF and 0.1% BSA was used.
(§10) An anti-phosphorylated tyrosine antibody labeled with europium, PT-66K (CISbio) was adjusted to 195 ng/ml, and streptavidin labeled with alphycocyanine, SA-XL (CISbio) was adjusted to 5 μg/ml.
(§11) As an assay plate, a 384-well plate was used. Per one well, 1.1 μl of a test compound, 4 μl of a substrate solution, and 4 μl of an enzyme solution were added, and 2 μl of an ATP solution was added to initiate an enzyme reaction. The enzyme reaction was performed at room temperature for 60 minutes, and 10 μl of a detection reagent was added to complete the reaction. One hour after completion of the reaction, time resolution fluorescent measurement was performed.

EGFR = molecular target: T2, EGFR (Homo sapiens, UniProt P00533); experiment: Enzyme inhibitory activity on EGFR (time resolution fluorescence, biotinylated poly-Glu-Tyr substrate); assay type: biochemical
T2 construct: purchased Carna Biosciences, Inc; host or cells: insect cell expression system
Procedure: as §1, §2, §3, §4, §5, §6, §7
An EGFR enzyme solution was adjusted to 250 ng/ml using a buffer.
as §8
An ATP concentration on study of the EGFR enzyme was adjusted to 125 μM using the buffer.
as §9, §10, §11

BT-474 = experiment: In vitro cell proliferation inhibition, WST assay; assay type: cell-based, human; settings: BT-474 cells, cultured for 3 days, read-out: BT-474 (nM) proliferation inhibitory activity (IC50 value)
Procedure: Test of In Vitro Cell Proliferation Inhibition of Test Compound
As a human-derived cancer cell strain, BT-474 was used. Cells were all cultured in a 37° C., 5% CO2 incubator in a medium in which 10% bovine fetal serum (ICN) and 50 units ml penicillin/60 μg/ml streptomycin solution (GIBCO) were added to Dulbecco's Modified Essential Medium (DMEM, Nacalai Tesque, Inc).

[1] = enzyme reaction at room temperature for 60 minutes
[2] = HER2 purified from insect cell expression system, ATP solution 290 μM, room temperature, 60 minutes
[3] = EGFR purified from insect cell expression system, ATP solution 125 μM, room temperature, 60 minutes

T2 sequence (P00533 25-1210): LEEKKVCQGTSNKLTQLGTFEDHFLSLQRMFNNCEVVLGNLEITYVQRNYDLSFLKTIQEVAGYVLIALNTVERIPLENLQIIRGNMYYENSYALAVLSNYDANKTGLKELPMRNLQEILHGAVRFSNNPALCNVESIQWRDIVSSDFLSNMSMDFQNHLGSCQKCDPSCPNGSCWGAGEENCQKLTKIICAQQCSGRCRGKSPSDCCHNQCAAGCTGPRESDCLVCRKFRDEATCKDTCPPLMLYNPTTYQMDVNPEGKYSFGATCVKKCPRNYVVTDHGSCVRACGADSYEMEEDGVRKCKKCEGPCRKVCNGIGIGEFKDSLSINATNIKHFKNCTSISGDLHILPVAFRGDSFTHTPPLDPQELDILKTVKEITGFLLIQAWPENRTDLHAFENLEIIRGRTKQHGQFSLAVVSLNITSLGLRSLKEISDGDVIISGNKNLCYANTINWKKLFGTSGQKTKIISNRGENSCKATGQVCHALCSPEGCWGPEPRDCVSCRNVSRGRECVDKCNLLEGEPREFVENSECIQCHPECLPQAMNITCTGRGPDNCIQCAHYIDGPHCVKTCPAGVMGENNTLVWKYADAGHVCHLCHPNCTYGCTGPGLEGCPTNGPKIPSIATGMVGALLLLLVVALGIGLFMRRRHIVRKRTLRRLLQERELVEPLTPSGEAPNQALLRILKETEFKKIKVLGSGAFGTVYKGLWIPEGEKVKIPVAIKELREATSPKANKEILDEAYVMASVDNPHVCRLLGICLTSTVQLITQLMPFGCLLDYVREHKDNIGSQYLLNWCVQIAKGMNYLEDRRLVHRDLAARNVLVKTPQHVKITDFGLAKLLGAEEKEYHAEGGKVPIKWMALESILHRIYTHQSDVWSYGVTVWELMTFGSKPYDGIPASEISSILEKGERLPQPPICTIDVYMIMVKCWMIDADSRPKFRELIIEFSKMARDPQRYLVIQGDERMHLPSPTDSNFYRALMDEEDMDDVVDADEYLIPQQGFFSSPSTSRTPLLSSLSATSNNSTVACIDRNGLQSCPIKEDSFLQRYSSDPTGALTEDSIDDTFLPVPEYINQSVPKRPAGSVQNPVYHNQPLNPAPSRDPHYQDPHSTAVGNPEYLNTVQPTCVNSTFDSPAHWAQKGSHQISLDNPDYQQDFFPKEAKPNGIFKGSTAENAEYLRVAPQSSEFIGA
T1 sequence (P04626 23-1255): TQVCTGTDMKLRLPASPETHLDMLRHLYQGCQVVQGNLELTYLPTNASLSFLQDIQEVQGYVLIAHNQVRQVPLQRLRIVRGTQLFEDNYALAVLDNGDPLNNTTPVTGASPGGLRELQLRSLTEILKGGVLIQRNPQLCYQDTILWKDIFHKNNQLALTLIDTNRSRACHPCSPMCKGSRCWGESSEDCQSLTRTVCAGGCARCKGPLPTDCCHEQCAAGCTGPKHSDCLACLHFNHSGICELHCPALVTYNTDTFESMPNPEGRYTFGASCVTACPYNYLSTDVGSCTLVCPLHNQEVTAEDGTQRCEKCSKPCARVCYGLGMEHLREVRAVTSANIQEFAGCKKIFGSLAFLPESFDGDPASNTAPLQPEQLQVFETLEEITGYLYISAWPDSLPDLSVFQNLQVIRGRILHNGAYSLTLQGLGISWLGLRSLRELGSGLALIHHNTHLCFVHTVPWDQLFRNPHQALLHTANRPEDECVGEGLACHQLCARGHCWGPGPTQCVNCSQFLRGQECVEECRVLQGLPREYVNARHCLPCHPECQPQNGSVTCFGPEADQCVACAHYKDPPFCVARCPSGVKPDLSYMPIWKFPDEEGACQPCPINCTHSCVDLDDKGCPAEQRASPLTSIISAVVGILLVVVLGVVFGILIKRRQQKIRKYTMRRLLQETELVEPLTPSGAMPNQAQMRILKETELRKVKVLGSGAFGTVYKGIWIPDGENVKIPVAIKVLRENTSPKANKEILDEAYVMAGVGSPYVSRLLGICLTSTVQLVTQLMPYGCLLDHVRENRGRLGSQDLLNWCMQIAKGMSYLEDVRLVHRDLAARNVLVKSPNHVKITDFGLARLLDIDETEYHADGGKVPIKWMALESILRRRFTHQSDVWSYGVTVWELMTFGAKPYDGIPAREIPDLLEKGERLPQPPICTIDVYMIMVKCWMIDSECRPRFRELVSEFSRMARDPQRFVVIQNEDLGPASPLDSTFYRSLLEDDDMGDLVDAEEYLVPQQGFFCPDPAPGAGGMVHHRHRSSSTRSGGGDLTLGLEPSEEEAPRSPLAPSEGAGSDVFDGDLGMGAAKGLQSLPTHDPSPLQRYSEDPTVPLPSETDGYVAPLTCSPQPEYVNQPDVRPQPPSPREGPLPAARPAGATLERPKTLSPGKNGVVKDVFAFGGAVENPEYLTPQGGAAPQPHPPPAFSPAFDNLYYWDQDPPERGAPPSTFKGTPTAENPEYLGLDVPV

Structure (SMILES) | IC50 (HER2; [1]) [nM] | IC50 (EGFR; [1]) [nM] | IC50 (BT-474; Homo sapiens, BT-474, 72 h) [nM] | IC50 (HER2; [2]) [nM] | IC50 (EGFR; [3]) [nM] | IC50 (BT-474) [nM]
CC#C/C(=N\OCCN1CCOCC1)c1ccc2ncnc(Nc3ccc4c(cnn4Cc4cccc(F)c4)c3)c2c1 [VIII-195] | 43 | 45 | 29 |  |  | 
CC#CC(=NOC[C@@H]1CNCCO1)c1ccc2ncnc(Nc3ccc(OCc4cccc(F)c4)c(Cl)c3)c2c1 [VIII-32, 4-(3-chloro-4-(3-fluorobenzyloxy)phenylamino)-6-(1-((S)-morpholin-2-ylmethoxyimino)-2-butyn-1-yl)quinazoline dihydrochloride] |  |  | 32 | 46 | 50 | 
CC#CC(=NOCCN1CCC(NC(C)=O)C1)c1ccc2ncnc(Nc3ccc(OCc4cccc(F)c4)c(Cl)c3)c2c1 (stereo not shown) [VIII-70] |  |  |  | 31 | 63 | 7
CC#C/C(=N\OC[C@@H]1CCCN1)c1ccc2ncnc(Nc3ccc(OCc4cccc(F)c4)c(Cl)c3)c2c1 [VIII-72] |  |  |  | 11 | 6.3 | 21
CC#C/C(=N\OC[C@H]1CCCN1C)c1ccc2ncnc(Nc3ccc(OCc4ccccn4)c(Cl)c3)c2c1 [VIII-158] | 3.8 | 3.8 | 27 |  |  | 
CC#C/C(=N\OCCNC1CCOCC1)c1ccc2ncnc(Nc3ccc(OCc4cccc(F)c4)c(Cl)c3)c2c1 [VIII-55] |  |  | 25 | 68 | 19 | 
CC#C/C(=N\OCCN1CCC[C@@H]1CO)c1ccc2ncnc(Nc3ccc(OCc4cccc(F)c4)c(Cl)c3)c2c1 [VIII-69] |  |  | 16 | 28 | 43 | 
Fc1cccc(COc2ccc(Nc3ncnc4ccc(C=NN5CCCC5)cc34)cc2Cl)c1 [IX-1, 4-(3-chloro-4-(3-fluorobenzyloxy)phenylamino)-6-(pyrrolidin-1-yliminomethyl)quinazoline] | 203 | 138 |  |  |  | 
CC#C/C(=N\OC[C@@H]1CCCN1C)c1ccc2ncnc(Nc3ccc(OCc4cccc(F)c4)c(Cl)c3)c2c1 [VIII-75] |  |  |  | 34 | 50 | 22
CC#CC(=NOCCNCC(C)CO)c1ccc2ncnc(Nc3ccc(OCc4cccc(F)c4)c(Cl)c3)c2c1 (stereo not shown) [VIII-62] |  |  |  | 22 | 22 | 12
CN(/N=C/c1ccc2ncnc(Nc3ccc(OCc4cccc(F)c4)c(Cl)c3)c2c1)c1ccccc1 [IX-8] | 549 | 426 |  |  |  | 
CC#C/C(=N\OC[C@@H]1CCCN1CCO)c1ccc2ncnc(Nc3ccc(OCc4ccccn4)c(Cl)c3)c2c1 [VIII-160] | 18 | 17 | 47 |  |  | 
CC#C/C(=N\OCCNC[C@H]1CCC(=O)N1)c1ccc2ncnc(Nc3ccc4c(cnn4Cc4cccc(F)c4)c3)c2c1 [VIII-190] | 11.1 | 8.9 | 14 |  |  | 
CC#CC(=NOCC1CNCCN1)c1ccc2ncnc(Nc3ccc4c(cnn4Cc4cccc(F)c4)c3)c2c1 (stereo not shown) [VIII-198] | 4.6 | 3.6 | 10 |  |  | 
CC#C/C(=N\OC[C@H]1CNCCO1)c1ccc2ncnc(Nc3ccc(OCc4ccccn4)c(Cl)c3)c2c1 [VIII-173] | 3.9 | 4.8 | 40 |  |  | 
CC#C/C(=N\OCCN1CC[C@@H](NC(C)=O)C1)c1ccc2ncnc(Nc3ccc(OCc4ccccn4)c(Cl)c3)c2c1 [VIII-149] | 14 | 13 | 28 |  |  | 
CC#C/C(=N\OCCNC[C@@H]1CCCO1)c1ccc2ncnc(Nc3ccc(OCc4ccccn4)c(Cl)c3)c2c1 [VIII-137] | 14 | 13 | 78 |  |  | 
CC#CC(=NOCCN1CCOCC1)c1ccc2ncnc(Nc3ccc(OCc4cccc(F)c4)c(Cl)c3)c2c1 [VIII-10] |  |  | 27 | 484 | 409 | 
CC#C/C(=N\OC[C@H]1CCCN1CC(=O)OC)c1ccc2ncnc(Nc3ccc(OCc4cccc(F)c4)c(Cl)c3)c2c1 [VIII-87] |  |  |  | 476 | 642 | 6
O=S1(=O)CCN(CCON=C(c2ccccc2)c2ccc3ncnc(Nc4ccc(OCc5cccc(F)c5)c(Cl)c4)c3c2)CC1 [VIII-12] |  |  | 69 | 227 | 209 | 
CC#C/C(=N\OCCNC1CCN(S(C)(=O)=O)CC1)c1ccc2ncnc(Nc3ccc(OCc4cccc(F)c4)c(Cl)c3)c2c1 [VIII-60] |  |  |  | 30 | 54 | 14

Structure (SMILES) | IC50 (HER2; [1]) [nM] | IC50 (EGFR; [1]) [nM] | IC50 (BT-474; Homo sapiens, BT-474, 72 h) [nM] | IC50 (HER2; [2]) [nM] | IC50 (EGFR; [3]) [nM] | IC50 (BT-474) [nM]
CC#C/C(=N\OC[C@@H]1C[C@@H](O)CN1)c1ccc2ncnc(Nc3ccc(OCc4ccccn4)c(Cl)c3)c2c1 [VIII-156] | 6.4 | 7 | 24 |  |  | 
CC#C/C(=N\OC[C@@H]1COCCN1)c1ccc2ncnc(Nc3ccc(OCc4ccccn4)c(Cl)c3)c2c1 [VIII-169] | 15 | 13 | 35 |  |  | 
CC#C/C(=N\OCCN(CC)CCOC)c1ccc2ncnc(Nc3ccc4c(cnn4Cc4cccc(F)c4)c3)c2c1 [VIII-192] | 14.2 | 6.2 | 24 |  |  | 
CC#C/C(=N\OC[C@H]1COCCN1)c1ccc2ncnc(Nc3ccc(OCc4ccccn4)c(Cl)c3)c2c1 [VIII-167] | 4.2 | 4.8 | 21 |  |  | 
CC#C/C(=N\OCCNCCOC(N)=O)c1ccc2ncnc(Nc3ccc(OCc4cccc(F)c4)c(Cl)c3)c2c1 [VIII-53] |  |  | 12 | 80 | 79 | 
CC#C/C(=N\OCC1COCCN1)c1ccc2ncnc(Nc3ccc(COc4cccc(F)c4)c(Cl)c3)c2c1 (stereo not shown) [VIII-221] | 168 | 143 |  |  |  | 15
CC#C/C(=N\OCCNC[C@@H](C)CO)c1ccc2ncnc(Nc3ccc(OCc4ccccn4)c(Cl)c3)c2c1 [VIII-139] | 3.8 | 5 | 32 |  |  | 
CC#C/C(=N\OC[C@@H]1CNCC(=O)N1)c1ccc2ncnc(Nc3ccc(OCc4cccc(F)c4)c(Cl)c3)c2c1 [VIII-119] |  |  |  | 77 | 81 | 31
CC#C/C(=N\OC[C@@H]1NCCO[C@H]1C)c1ccc2ncnc(Nc3ccc(OCc4cccc(F)c4)c(Cl)c3)c2c1 [VIII-106] |  |  | 16 | 148 | 160 | 
OCC#C/C(=N\OCCN1CCCC1)c1ccc2ncnc(Nc3ccc(OCc4cccc(F)c4)c(Cl)c3)c2c1 [VIII-122] |  |  | 14 | 24 | 29 | 
CC#C/C(=N\OCCNC)c1ccc2ncnc(Nc3ccc(Oc4ccc(C)nc4)c(C)c3)c2c1 [VIII-210] | 14 | 42 | 31 |  |  | 
CNCCO/N=C(\C#CCOC)c1ccc2ncnc(Nc3ccc(S(=O)(=O)c4ccccc4)cc3)c2c1 [VIII-208] | 23 | 28 | 27 |  |  | 
CC#C/C(=N\OC[C@@H](C)N)c1ccc2ncnc(Nc3ccc(OCc4ccccn4)c(Cl)c3)c2c1 [VIII-129] | 6.3 | 7.1 | 12 |  |  | 
CC#C/C(=N\OCCN(C)CCO)c1ccc2ncnc(Nc3ccc(OCc4ccccn4)c(Cl)c3)c2c1 [VIII-145] | 8.9 | 9.4 | 21 |  |  | 
Fc1cccc(COc2ccc(Nc3ncnc4ccc(/C=N/OCCN5CCOCC5)cc34)cc2Cl)c1 [Compound V-7] |  |  | 134 | 76 | 36 | 
COC[C@@H]1CCCN1/N=C/c1ccc2ncnc(Nc3ccc(OCc4cccc(F)c4)c(Cl)c3)c2c1 [IX-6] | 326 | 344 |  |  |  | 
CC/C(=N\OCCNCCS(C)(=O)=O)c1ccc2ncnc(Nc3ccc(OCc4cccc(F)c4)c(Cl)c3)c2c1 [VIII-19] |  |  |  | 115 | 89 | 
Fc1cccc(COc2ccc(Nc3ncnc4ccc(/C=N/N5CCCCC5)cc34)cc2Cl)c1 [IX-4] | 334 | 193 |  |  |  | 
CC#C/C(=N\OC[C@@H]1C[C@H](O)CN1)c1ccc2ncnc(Nc3ccc4c(cnn4Cc4cccc(F)c4)c3)c2c1 [VIII-200] |  |  |  |  |  | 8
CC#C/C(=N\OCCN(C)CCOC)c1ccc2ncnc(Nc3ccc(OCc4cccc(F)c4)c(Cl)c3)c2c1 [VIII-64] |  |  | 22 |  | 52 | 
